Test: log P by HPLC on a reversed-phase column (C 18), EEC Directive 79/831 Annex V.A8
Assay type: physicochemical
Settings: HPLC reversed-phase C 18, 40° C., 0.1% aqueous formic acid and acetonitrile, linear gradient 10% to 95% acetonitrile
Description: In table 1, the log P values were determined in accordance with EEC Directive 79/831 Annex V.A8 by HPLC (High Performance Liquid Chromatography) on a reversed-phase column (C 18), using the method described below:
temperature: 40° C.; mobile phases: 0.1% aqueous formic acid and acetonitrile; linear gradient from 10% acetonitrile to 95% acetonitrile;
If more than one Log P value is available within the same method, all the values are given and separated by “;”.
Calibration was carried out using unbranched alkan-2-ones (comprising 3 to 16 carbon atoms) with known log P values (determination of the log P values by the retention times using linear interpolation between two successive alkanones). lambda-max-values were determined using UV-spectra from 200 nm to 400 nm and the peak values of the chromatographic signals.
For `Fc1ccc(Nc2cnc3ccccc3c2)c(-c2cccnc2)c1` [I.001], the logP was 1.39.
Molecule `Cc1nc2ccccc2nc1Nc1cccc(F)c1-c1ccncc1F` [I.002] has a logP of 2.57.
In the case of `Cc1nc2c(F)c(F)ccc2cc1Nc1ccccc1-c1ccnnc1` [I.003], the logP is reported as 2.28.
Molecule `Cc1cncc(-c2ccccc2Nc2cc3ccc(F)c(F)c3nc2C)c1` [I.004] has a logP of 1.99.
With `Cc1cc(-c2ccccc2Nc2cc3ccc(F)c(F)c3nc2C)ccn1` [I.005] the logP was 1.75.
For `Cc1ccncc1-c1ccccc1Nc1cc2ccc(F)c(F)c2nc1C` [I.006], the logP was 1.86.
Molecule `Cc1nc2c(F)c(F)ccc2cc1Cc1cccc(F)c1-c1ccncc1` [I.007] has a logP of 2.00.
Work on `Cc1nc2c(F)c(F)ccc2cc1Cc1cccc(F)c1-c1cccnc1` [I.008] yielded a logP of 2.64.
`Cc1nc2c(F)c(F)ccc2cc1Nc1cccc(F)c1-c1cccnc1` [I.009] gave a logP of 2.28.
Work on `Cc1nc2c(F)c(F)ccc2cc1Nc1cccc(F)c1-c1ccncc1` [I.010] yielded a logP of 2.01.
Work on `Cc1nc2c(F)c(F)ccc2cc1Cc1cccc(F)c1-c1cncnc1` [I.011] yielded a logP of 2.76.
With `Cc1nc2c(F)cccc2cc1Nc1cc(F)ccc1-c1ccncc1F` [I.012] the logP was 2.95.
`Cc1nc2c(F)c(F)ccc2cc1Nc1cccc(F)c1-c1cncnc1` [I.013] gave a logP of 2.61.
Molecule `Cc1nc2c(F)cccc2nc1Nc1cccc(F)c1-c1ccncc1F` [I.015] has a logP of 2.67.
In the case of `Cc1nc2c(F)c(F)ccc2cc1Nc1cccc(F)c1-c1ccnnc1` [I.016], the logP is reported as 2.44.
Molecule `Cc1nc2c(F)c(F)ccc2cc1Cc1cccc(F)c1C1=CCCCO1` [I.017] has a logP of 4.41.
With `Cc1nc2c(F)c(F)ccc2cc1Nc1cccc(F)c1C1=CCCCO1` [I.018] the logP was 4.44.
`Cc1nc2c(F)c(F)ccc2cc1Nc1ccccc1-c1ccc(C#N)nc1` [I.019] gave a logP of 3.25.
`Cc1nc2c(F)c(F)ccc2cc1Nc1ccccc1-c1cncc(C#N)c1` [I.020] gave a logP of 3.04.
`Cc1nc2c(F)c(F)ccc2cc1Nc1ccccc1-c1ccncc1C#N` [I.021] gave a logP of 1.41.
`CCc1cnccc1-c1ccccc1Nc1cc2ccc(F)c(F)c2nc1C` [I.022] gave a logP of 2.08.
For `CCc1ccncc1-c1ccccc1Nc1cc2ccc(F)c(F)c2nc1C` [I.023], the logP was 2.08.
Work on `CCc1ncccc1-c1ccccc1Nc1cc2ccc(F)c(F)c2nc1C` [I.024] yielded a logP of 2.03.
In the case of `Cc1cncc(C)c1-c1ccccc1Nc1cc2ccc(F)c(F)c2nc1C` [I.025], the logP is reported as 2.05.
With `Cc1nc2c(F)c(F)ccc2cc1Nc1ccccc1-c1cccc(=O)n1C` [I.026] the logP was 2.52.
In the case of `COc1cnccc1-c1ccccc1Nc1cc2ccc(F)c(F)c2nc1C` [I.027], the logP is reported as 2.14.
For `COc1cc(-c2ccccc2Nc2cc3ccc(F)c(F)c3nc2C)ccn1` [I.028], the logP was 3.56.
`COc1cccc(-c2ccccc2Nc2cc3ccc(F)c(F)c3nc2C)n1` [I.029] gave a logP of 4.66.
For `COc1ccncc1-c1ccccc1Nc1cc2ccc(F)c(F)c2nc1C` [I.030], the logP was 1.77.
Molecule `Cc1cc(-c2ccccc2Nc2cc3ccc(F)c(F)c3nc2C)cnc1F` [I.031] has a logP of 3.69.
`Cc1cncc(-c2c(F)cccc2Nc2cc3ccc(F)c(F)c3nc2C)c1` [I.032] showed a logP of 2.26.
Molecule `Cc1cc(-c2c(F)cccc2Nc2cc3ccc(F)c(F)c3nc2C)ccn1` [I.033] has a logP of 1.88.
Molecule `Cc1nc2c(F)c(F)ccc2cc1Nc1ccccc1-c1ccncc1Cl` [I.034] has a logP of 3.37.
For `Cc1nc2c(F)c(F)ccc2cc1Nc1ccccc1-c1cccc(Cl)n1` [I.035], the logP was 4.97.
With `Cc1nc2c(F)c(F)ccc2cc1Nc1ccccc1-c1ccnc(Cl)c1` [I.036] the logP was 3.56.
In the case of `Cc1nc2c(F)c(F)ccc2cc1Nc1ccccc1-c1ccc(Cl)nc1` [I.037], the logP is reported as 3.62.
Molecule `Cc1nc2c(F)c(F)ccc2cc1Nc1ccccc1-c1cccnc1Cl` [I.038] has a logP of 3.43.
With `Cc1nc2c(F)c(F)ccc2cc1Nc1ccccc1-c1cnccc1Cl` [I.039] the logP was 3.22.
Work on `Cc1nc2c(F)c(F)ccc2cc1Nc1ccccc1-c1cncc(Cl)c1` [I.040] yielded a logP of 3.54.
In the case of `Cc1nc2c(F)c(F)ccc2cc1Cc1cccc(F)c1-c1ccncc1F` [I.041], the logP is reported as 3.40.
`Cc1nc2c(F)c(F)ccc2cc1Cc1cccc(F)c1-c1cccnc1F` [I.043] gave a logP of 3.55.
Work on `Cc1nc2c(F)c(F)ccc2cc1Cc1cccc(F)c1-c1ccnc(F)c1` [I.044] yielded a logP of 3.65.
For `Cc1nc2c(F)c(F)ccc2cc1Nc1cccc(F)c1-c1ccc(F)nc1` [I.045], the logP was 3.46.
In the case of `Cc1nc2c(F)c(F)ccc2cc1Nc1cccc(F)c1-c1ccnc(F)c1` [I.046], the logP is reported as 3.46.
`Cc1nc2c(F)c(F)ccc2cc1Nc1cccc(F)c1-c1cccnc1F` [I.047] gave a logP of 3.35.
Work on `Cc1nc2c(F)c(F)ccc2cc1Nc1c(F)cccc1-c1ccncc1F` [I.048] yielded a logP of 3.04.
With `Cc1nc2c(F)c(F)ccc2cc1Nc1ccc(F)cc1-c1ccncc1F` [I.049] the logP was 3.24.
Work on `Cc1nc2c(F)c(F)ccc2nc1Cc1cccc(F)c1-c1ccncc1F` [I.050] yielded a logP of 3.31.
`Cc1nc2c(F)c(F)ccc2cc1Nc1cccc(F)c1-c1ccncc1F` [I.051] showed a logP of 3.29.
With `Cc1nc2c(F)c(F)ccc2cc1Nc1ccccc1-c1ccnc(F)c1F` [I.053] the logP was 3.69.
Molecule `Cc1nc2c(F)c(F)ccc2cc1Nc1ccccc1-c1cc(F)nc(F)c1` [I.054] has a logP of 3.91.
Molecule `Cc1nc2c(F)c(F)ccc2cc1Nc1ccccc1-c1ccc(F)nc1F` [I.055] has a logP of 3.81.
`Cc1nc2c(F)c(F)ccc2nc1Nc1cccc(F)c1-c1ccncc1F` [I.056] showed a logP of 2.98.
With `Cc1nc2c(F)c(F)ccc2cc1Nc1ccccc1-c1cnccc1C1CC1` [I.057] the logP was 2.05.
Work on `Cc1nc2c(F)c(F)ccc2cc1Nc1ccccc1-c1ccncc1C1CC1` [I.058] yielded a logP of 2.12.
In the case of `Cc1nc2c(F)c(F)ccc2cc1Nc1ccccc1-c1cccnc1C1CC1` [I.059], the logP is reported as 2.80.
`CCCc1ncccc1-c1ccccc1Nc1cc2ccc(F)c(F)c2nc1C` [I.060] showed a logP of 2.21.
Work on `CCCc1cnccc1-c1ccccc1Nc1cc2ccc(F)c(F)c2nc1C` [I.061] yielded a logP of 2.31.
For `CCCc1ccncc1-c1ccccc1Nc1cc2ccc(F)c(F)c2nc1C` [I.062], the logP was 2.41.
With `Cc1nc2c(F)c(F)ccc2cc1Nc1cccc(F)c1-c1ccncc1C#N` [I.063] the logP was 1.46.
In the case of `Cc1nc2c(F)c(F)ccc2cc1Nc1cccc(F)c1-c1cncc(C#N)c1` [I.064], the logP is reported as 3.16.
Molecule `CCOc1ccc(-c2ccccc2Nc2cc3ccc(F)c(F)c3nc2C)cn1` [I.065] has a logP of 4.02.
In the case of `CCOc1ncccc1-c1ccccc1Nc1cc2ccc(F)c(F)c2nc1C` [I.066], the logP is reported as 4.24.
`CCc1cnccc1-c1c(F)cccc1Nc1cc2ccc(F)c(F)c2nc1C` [I.067] gave a logP of 2.41.
In the case of `CCc1ccncc1-c1c(F)cccc1Nc1cc2ccc(F)c(F)c2nc1C` [I.068], the logP is reported as 2.41.
With `CCc1ncccc1-c1c(F)cccc1Nc1cc2ccc(F)c(F)c2nc1C` [I.069] the logP was 2.41.
`Cc1cncc(C)c1-c1c(F)cccc1Nc1cc2ccc(F)c(F)c2nc1C` [I.070] gave a logP of 2.28.
Work on `CSc1ccc(-c2ccccc2Nc2cc3ccc(F)c(F)c3nc2C)cn1` [I.071] yielded a logP of 3.81.
`CSc1ncccc1-c1ccccc1Nc1cc2ccc(F)c(F)c2nc1C` [I.072] gave a logP of 4.08.
`COc1ccc(-c2c(F)cccc2Cc2cc3ccc(F)c(F)c3nc2C)cn1` [I.073] showed a logP of 3.99.
In the case of `COc1cccc(-c2c(F)cccc2Cc2cc3ccc(F)c(F)c3nc2C)n1` [I.074], the logP is reported as 3.79.
Molecule `COc1ncccc1-c1c(F)cccc1Cc1cc2ccc(F)c(F)c2nc1C` [I.075] has a logP of 3.79.
In the case of `COc1ncccc1-c1c(F)cccc1Nc1cc2ccc(F)c(F)c2nc1C` [I.076], the logP is reported as 3.70.
Work on `COc1ccc(-c2c(F)cccc2Nc2cc3ccc(F)c(F)c3nc2C)cn1` [I.077] yielded a logP of 3.71.
In the case of `COc1ncc(-c2c(F)cccc2Cc2cc3ccc(F)c(F)c3nc2C)cn1` [I.078], the logP is reported as 3.25.
`COc1c(-c2ccccc2Nc2cc3ccc(F)c(F)c3nc2C)ccnc1F` [I.079] gave a logP of 3.72.
With `COc1cccc(-c2c(F)cccc2Nc2cc3ccc(F)c(F)c3nc2C)n1` [I.080] the logP was 4.55.
In the case of `COc1cnccc1-c1c(F)cccc1Nc1cc2ccc(F)c(F)c2nc1C` [I.081], the logP is reported as 2.44.
Molecule `COc1ccncc1-c1c(F)cccc1Nc1cc2ccc(F)c(F)c2nc1C` [I.082] has a logP of 1.84.
Work on `COc1cc(-c2c(F)cccc2Nc2cc3ccc(F)c(F)c3nc2C)ccn1` [I.083] yielded a logP of 3.71.
Molecule `Cc1cnc(Cl)c(-c2ccccc2Nc2cc3ccc(F)c(F)c3nc2C)c1` [I.084] has a logP of 3.69.
Molecule `Cc1nc2c(F)c(F)ccc2cc1Nc1ccccc1-c1ccc(Cl)nc1C` [I.085] has a logP of 3.94.
Work on `Cc1cc(Cl)ncc1-c1ccccc1Nc1cc2ccc(F)c(F)c2nc1C` [I.086] yielded a logP of 3.98.
In the case of `Cc1cc(-c2ccccc2Nc2cc3ccc(F)c(F)c3nc2C)cnc1Cl` [I.087], the logP is reported as 3.91.
`COc1ncc(-c2c(F)cccc2Nc2cc3ccc(F)c(F)c3nc2C)cn1` [I.088] gave a logP of 3.08.
`Cc1cc(-c2c(F)cccc2Nc2cc3ccc(F)c(F)c3nc2C)cnc1F` [I.089] showed a logP of 3.75.
`Cc1nc2c(F)c(F)ccc2cc1Nc1ccccc1-c1cncc(F)c1Cl` [I.090] showed a logP of 3.62.

Same assay, conditions: reversed-phase HPLC column (C 18); preparation examples; log P as defined in table 1 (HPLC, 0.1% aqueous formic acid/acetonitrile)
Molecule `Nc1cccc(F)c1-c1ccncc1F` has a chromatographic logP of 2.38.
With `Cc1nc2c(F)c(F)ccc2cc1Cc1cscc1Br` [3-[(4-bromo-3-thienyl)methyl]-7,8-difluoro-2-methylquinoline] the chromatographic logP was 4.01.
`ClCc1cscc1Br` [3-bromo-4-(chloromethyl)thiophene] gave a chromatographic logP of 2.99.
`Cc1nc2c(F)c(F)ccc2cc1Cc1cccc(F)c1-c1ccc(F)nc1` [I.042, 7,8-difluoro-3-[3-fluoro-2-(6-fluoropyridin-3-yl)benzyl]-2-methylquinoline] showed a chromatographic logP of 3.7.
